Test results taken from patent US9826740B2, “Synergistic fungicidal compositions and methods of use” (ZELAM LIMITED, priority 2010, dated 2017).
Several values for one entry are separate records, joined by “and”; a condition that tells them apart may be missing. Equal entries are not always repeated.

What was measured:
[1] = cited from earlier work
[2] = system: Trametes versicolor (White rot); assay: Malt extract agar plate growth inhibition; type: cell-based; conditions: Example 4, 5 days at 25° C.
Experimental: (§1) The end points used were EC90 or EC50, the concentration producing 90% or 50% inhibition of growth or weight loss resulting from fungal growth. EC values were calculated by regression analysis of dose response data using the GraphPad Prism software package (GraphPad Software, Inc., 5755 Oberlin Drive #110, San Diego, Calif. 92121, USA). EC90 values are expressed in ppm and EC50 values are expressed in gai/m^3.
(§2) Decay fungi were grown on malt extract agar plates for 5 days at 25° C. in the presence of triadimefon alone or triadimenol alone (A), cyproconazole alone (B), and the pairs of mixtures shown in Table 2.

[3] = system: Fomitopsis lilacino-gilva (Brown rot); assay: Malt extract agar plate growth inhibition; type: cell-based; conditions: Example 4, 5 days at 25° C.
Experimental: as §1, §2

Coniophora puteana = assay: Rot jar test of glueline treated Pinus radiata plywood (AWPC 2007); conditions: Example 10, glueline rate giving 50% inhibition of weight loss, regression
Experimental: as §1
Efficacy as a glueline fungicide was tested in plywood manufactured with phenol formaldehyde (PF), a typical resin used in engineered wood products. The wood type was Pinus radiata sapwood, which, like many softwoods, is rapidly degraded by decay organisms, if not protected. […]
(§3) In order to examine the interaction between triadimefon and cyproconazole in the glueline a synergy trial was performed using plywood manufactured with fungicide-supplemented PF resin and the rot jar method described above. Six glueline rates (expressed as gai/m^3) of triadimefon alone, cyproconazole alone, triadimefon+cyproconazole (10:1) and triadimefon+cyproconazole (6:1) were used to establish EC50 values by regression analysis. Synergy was determined by the Wadley method as described above using the EC50 values. […]

[4] = system: Serpula lacrymans (Dry rot); assay: Malt extract agar plate growth inhibition; type: cell-based
Experimental: as §1, with “gai/m^3. […]” for “gai/m^3.”
(§4) Further EC90 values were determined for this example in a standard manner.

[5] = system: Gloeophyllum abietinum (Brown rot); assay: Malt extract agar plate growth inhibition; type: cell-based; conditions: Example 5, 7 days growth
Experimental: as §1, with “gai/m^3. […]” for “gai/m^3.”
as §4

[6] = system: Pycnoporus coccineus (White rot); assay: Malt extract agar plate growth inhibition; type: cell-based
Experimental: as §1, with “gai/m^3. […]” for “gai/m^3.”
as §4

[7] = system: Poria placenta (Brown rot); assay: Malt extract agar plate growth inhibition; type: cell-based
Experimental: as §1, with “gai/m^3. […]” for “gai/m^3.”
as §4

[8] = system: Tyromyces palustris (Brown rot); assay: Malt extract agar plate growth inhibition; type: cell-based; conditions: Example 5, 4 days growth
Experimental: as §1, with “gai/m^3. […]” for “gai/m^3.”
as §4

[9] = system: Antrodia xantha (Brown rot); assay: Malt extract agar plate growth inhibition; type: cell-based
Experimental: as §1, with “gai/m^3. […]” for “gai/m^3.”

[10] = system: Coniophora puteana (Brown rot); assay: Malt extract agar plate growth inhibition; type: cell-based; conditions: Example 6, 8 days growth
Experimental: as §1, with “gai/m^3. […]” for “gai/m^3.”

[11] = system: Fomitopsis lilacino-gilva; assay: Rot jar test of glueline treated Pinus radiata plywood (AWPC 2007); conditions: for EC50(obs): Example 9, glueline rate giving 50% inhibition of weight loss, six rates, regression
Experimental: as §1
(§5) Efficacy as a glueline fungicide was tested in plywood manufactured with phenol formaldehyde (PF), a typical resin used in engineered wood products. The wood type was Pinus radiata sapwood, which, like many softwoods, is rapidly degraded by decay organisms, if not protected. Five 3.2 mm rotary-peeled veneers were laid up with fungicide-containing PF resin at a typical commercial glue spread rate (250 g/m^2), cold pressed for 10 minutes then hot pressed for 12 minutes at 135° C. and […]. Test specimens (25 mm×25 mm×16 mm) were cut, then leached for 14 days according to EN 84 before conducting a three month “rot jar test” as specified by the Australasian Wood Preservation Committee (Laboratory Decay Test for Hazard Classes H3, H4 and H5, AWPC, 2007). Untreated controls contained no fungicide.
(§6) Plywood was manufactured following the procedure in Example 7 using triadimefon and triadimenol as the glueline fungicides and tested by the rot jar method after leaching.
(§7) In order to examine the interaction between triadimefon and cyproconazole in the glueline a synergy trial was performed using plywood manufactured with fungicide-supplemented PF resin and the rot jar method described above. Six glueline rates (expressed as gai/m^3) of triadimefon alone, cyproconazole alone, triadimefon+cyproconazole (10:1) and triadimefon+cyproconazole (6:1) were used to establish EC50 values by regression analysis. Synergy was determined by the Wadley method as described above using the EC50 values.
(§8) Plywood 29 mm thick was manufactured from seven 4.3 mm rotary peeled Pinus radiata sapwood veneers using PF resin supplemented with various rates of triadimefon plus cyproconazole at a 10:1 ratio. […] The finished plywood was then sprayed with the same mixtures to cover the top and bottom faces of the plywood. Test specimens (25 mm×25 mm×29 mm) were cut, leached and tested by the rot jar method as described in Example 7.

Antrodia xantha = assay: as above; conditions: for EC50(obs): Example 9, glueline rate giving 50% inhibition of weight loss, six rates, regression; for Percentage weight loss: rot jar after leaching
Experimental: as §1, §5, §6, §7, §8

Serpula lacrymans = assay: as above; conditions: for Percentage weight loss: leached, three month rot jar; for EC50(obs): Example 9, glueline rate giving 50% inhibition of weight loss, six rates, regression
Experimental: as §1, §5, §3

Tyromyces palustris = assay: as above
Experimental: as §5
Plywood was manufactured following the procedure in Example 7 using triadimefon and triadimenol as the glueline fungicides and tested by the rot jar method after leaching. […]

[12] = 20° C.; cited from earlier work
[13] = 20° C.; cited from earlier work; remark: listed apart in the source
[14] = cited from earlier work; remark: listed apart in the source
[15] = Example 7, glueline 62.5 gai/m3, PF plywood, leached, three month rot jar
[16] = Example 7, glueline 125 gai/m3, PF plywood, leached, three month rot jar
[17] = Example 7, glueline 250 gai/m3, PF plywood, leached, three month rot jar
[18] = Example 7, glueline 500 gai/m3, PF plywood, leached, three month rot jar
[19] = Example 7, glueline 62.5 gai/m3, PF plywood
[20] = Example 7, glueline 125 gai/m3, PF plywood
[21] = Example 7, glueline 250 gai/m3, PF plywood
[22] = Example 7, glueline 500 gai/m3, PF plywood
[23] = Example 8, glueline 250 gai/m3, PF plywood, rot jar after leaching
[24] = Example 8, glueline 500 gai/m3, PF plywood, rot jar after leaching
[25] = Example 8, glueline 1000 gai/m3, PF plywood, rot jar after leaching
[26] = Example 8, glueline 2000 gai/m3, PF plywood, rot jar after leaching

Compound: CC(C1CC1)C(O)(Cn1cncn1)c1ccc(Cl)cc1 (racemic) [Cyproconazole]
- Stability in water ([1]; pH 1): Stable in water 35 d
- EC90(obs) [2]: 0.30 ppm and 0.19 ppm
- EC90(obs) [3]: 0.12 ppm
- EC50(obs) (Coniophora puteana): 345 gai/m^3
- EC90(obs) ([4]; Example 5, 5 days growth): 1.60 ppm
- EC90(obs) ([4]; Example 6, 8 days growth): 1.32 ppm
- EC90(obs) [5]: 0.25 ppm
- EC90(obs) ([6]; Example 5, 4 days growth): 0.17 ppm
- EC90(obs) ([6]; Example 6, 6 days growth): 0.14 ppm
- EC90(obs) ([7]; Example 5, 5 days growth): 0.92 ppm
- EC90(obs) ([7]; Example 6, 6 days growth): 0.36 ppm
- EC90(obs) [8]: 0.68 ppm
- EC90(obs) ([9]; Example 4, 5 days at 25° C.): 0.19 ppm
- EC90(obs) ([9]; Example 6, 8 days growth): 0.46 ppm
- EC90(obs) [10]: 1.93 ppm
- Percentage weight loss [11, 15]: 7.6%
- Percentage weight loss [11, 16]: 4.1%
- Percentage weight loss [11, 17]: 2.7%
- Percentage weight loss [11, 18]: 0.8%
- EC50(obs) [11]: 10 gai/m^3
- EC50(obs) (Antrodia xantha): 84 gai/m^3
- Percentage weight loss (Serpula lacrymans; [19]): 38.0%
- Percentage weight loss (Serpula lacrymans; [20]): 38.0%
- Percentage weight loss (Serpula lacrymans; [21]): 37.9%
- Percentage weight loss (Serpula lacrymans; [22]): 29.6%
- EC50(obs) (Serpula lacrymans): 465 gai/m^3
- Percentage weight loss (Tyromyces palustris; [15]): 25.0%
- Percentage weight loss (Tyromyces palustris; [16]): 16.0%
- Percentage weight loss (Tyromyces palustris; [17]): 17.1%
- Percentage weight loss (Tyromyces palustris; [18]): 4.3%

Compound: CC(C)(C)C(=O)C(Oc1ccc(Cl)cc1)n1cncn1 (racemic) [Triadimefon]
- Stability, hydrolysis DT50 ([1]; pH 4,7,9): DT50 >1 y pH 4,7,9
- EC90(obs) [2]: 1.52 ppm
- EC90(obs) [3]: 1.48 ppm
- EC50(obs) (Coniophora puteana): 2591144 gai/m^3
- EC90(obs) ([4]; Example 5, 5 days growth): 26.4 ppm
- EC90(obs) ([4]; Example 6, 8 days growth): 26.3 ppm
- EC90(obs) [5]: 17.2 ppm
- EC90(obs) ([6]; Example 5, 4 days growth): 0.34 ppm
- EC90(obs) ([6]; Example 6, 6 days growth): 0.70 ppm
- EC90(obs) ([7]; Example 5, 5 days growth): 0.82 ppm
- EC90(obs) ([7]; Example 6, 6 days growth): 1.08 ppm
- EC90(obs) [8]: 4.48 ppm
- Sol. Water [12]: 64 mg/L (20° C.)
- EC90(obs) ([9]; Example 4, 5 days at 25° C.): 2.56 ppm
- EC90(obs) ([9]; Example 6, 8 days growth): 2.52 ppm
- EC90(obs) [10]: 27.4 ppm
- Percentage weight loss [11, 15]: 17.8%
- Percentage weight loss [11, 16]: 16.7%
- Percentage weight loss [11, 17]: 10.3%
- Percentage weight loss [11, 18]: 8.2%
- Percentage weight loss [11, 23]: 19.1%
- Percentage weight loss [11, 24]: 13.8%
- Percentage weight loss [11, 25]: 5.1%
- Percentage weight loss [11, 26]: 3.6%
- EC50(obs) [11]: 121 gai/m^3
- Percentage weight loss (Antrodia xantha; Example 8, glueline 250 gai/m3, PF plywood): 29.4%
- Percentage weight loss (Antrodia xantha; Example 8, glueline 500 gai/m3, PF plywood): 20.3%
- Percentage weight loss (Antrodia xantha; Example 8, glueline 1000 gai/m3, PF plywood): 12.5%
- Percentage weight loss (Antrodia xantha; Example 8, glueline 2000 gai/m3, PF plywood): 6.1%
- EC50(obs) (Antrodia xantha): 248 gai/m^3
- Sol. DCM [13]: >200 g/L (20° C.)
- Sol. hexane [13]: 6.3 g/L (20° C.)
- Sol. toluene [13]: >200 g/L (20° C.)
- Percentage weight loss (Serpula lacrymans; [19]): 42.4%
- Percentage weight loss (Serpula lacrymans; [20]): 43.8%
- Percentage weight loss (Serpula lacrymans; [21]): 42.2%
- Percentage weight loss (Serpula lacrymans; [22]): 44.9%
- EC50(obs) (Serpula lacrymans): 14328 gai/m^3
- Kow (log P) [14]: 3.11
- Percentage weight loss (Tyromyces palustris; [15]): 28.7%
- Percentage weight loss (Tyromyces palustris; [16]): 29.2%
- Percentage weight loss (Tyromyces palustris; [17]): 16.5%
- Percentage weight loss (Tyromyces palustris; [18]): 7.6%
- Percentage weight loss (Tyromyces palustris; [23]): 14.2%
- Percentage weight loss (Tyromyces palustris; [24]): 10.7%
- Percentage weight loss (Tyromyces palustris; [25]): 2.0%
- Percentage weight loss (Tyromyces palustris; [26]): 0.4%
